Values quoted from earlier work in patent US7265128B2, “3-amino-4-phenylbutanoic acid derivatives as dipeptidyl peptidase inhibitors for the treatment or prevention of diabetes” (Merck & Co., Inc., priority 2003, dated 2007).
Each block holds one compound with its values, some of them ahead of it.

Columns and labels:
rats = details: survival doubled from day 7
mouse = details: cyclophosphamide-induced neutropenia
DP-IV = molecular target: T1, DP-IV (Homo sapiens, UniProt P27487)
T1 construct: GRF is rapidly degraded in plasma to GRF[3-44]
T1 sequence (P27487 whole entry): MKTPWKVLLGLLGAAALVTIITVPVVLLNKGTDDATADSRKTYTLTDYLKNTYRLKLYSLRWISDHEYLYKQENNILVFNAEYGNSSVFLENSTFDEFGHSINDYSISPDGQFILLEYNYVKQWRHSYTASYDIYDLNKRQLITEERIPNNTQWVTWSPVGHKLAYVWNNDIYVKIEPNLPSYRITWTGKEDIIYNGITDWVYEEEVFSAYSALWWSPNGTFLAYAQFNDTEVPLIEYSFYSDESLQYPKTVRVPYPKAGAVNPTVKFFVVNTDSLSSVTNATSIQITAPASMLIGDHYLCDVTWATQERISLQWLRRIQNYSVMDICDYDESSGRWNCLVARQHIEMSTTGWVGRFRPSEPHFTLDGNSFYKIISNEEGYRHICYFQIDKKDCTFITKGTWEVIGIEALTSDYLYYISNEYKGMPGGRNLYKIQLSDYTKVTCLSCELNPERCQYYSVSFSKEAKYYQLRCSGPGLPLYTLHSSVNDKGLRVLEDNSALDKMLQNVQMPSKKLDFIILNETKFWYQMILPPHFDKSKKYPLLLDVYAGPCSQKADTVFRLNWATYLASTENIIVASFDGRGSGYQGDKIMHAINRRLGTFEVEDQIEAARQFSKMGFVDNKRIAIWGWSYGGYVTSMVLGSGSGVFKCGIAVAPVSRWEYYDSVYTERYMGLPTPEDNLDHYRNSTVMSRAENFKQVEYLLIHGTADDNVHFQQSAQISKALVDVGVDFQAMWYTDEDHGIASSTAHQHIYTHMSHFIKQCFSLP

Compound: CC(C)N1CCC(c2ccccc2)(c2ccccc2)CC1 [Prodipine, Pro-Pro-diphenyl-phosphonate]
- cardiac allograft survival (rats): 14 day

Compound: CC(C)[C@H](N)C(=O)N1CCC[C@H]1B(O)O [Val-Boro-Pro]
- hematopoiesis (mouse): stimulated hematopoiesis

- degradation of GRF in plasma to GRF[3-44] (DP-IV): prevented
Compound: diprotin A
